From PMC11811690 (Angewandte Chemie (International Ed. in English), 2024)
≈ marks a conversion by molar mass, not a printed value. Where “and” joins values, the source holds several entries; their conditions need not be identical. Identical values can stand only once. Like-named read-outs stand apart in the source and are kept apart here.

What was measured:
[1] = tested on: M. tuberculosis H37Rv poly-g-GFP; test: microbe, parasite or virus in culture; format: cell-based; conditions: for IC90: Mycobacterium tuberculosis, H37RV, 240 h, read-out: IC90 Mtb H37Rv-poly-g-GFP, fluorescence read-out
C. crescentus pfhuA = test: Inhibition zone (Kirby-Bauer disk diffusion), C. crescentus pfhuA; conditions: 20 µg per disk, 24 h, 30 °C, permeable strain
C. difficile 630 = test: microbe, parasite or virus in culture; format: cell-based, Clostridioides difficile; conditions: C. difficile 630, anaerobic, overnight, growth suppressed to OD600 < 0.15; for MIC: Clostridioides difficile, read-out: MIC C. difficile
[2] = tested on: M. tuberculosis H37Rv poly-g-GFP; test: microbe, parasite or virus in culture; format: cell-based; conditions: Mycobacterium tuberculosis, 336 h, read-out: MIC Mtb H37Rv-poly-g-GFP, turbidity read-out
mutant RNAP^R89A = tested on: mutant RNAP^R89A; parameters: method as in PMID 29606590; conditions: transcription assay, mutant versus wild-type RNAP; cited from earlier work
[3] = tested on: C. crescentus pfhuA_ΔacrAB-nodT; format: cell-based; conditions: disk diffusion, 20 µg per disk, 24 h, 30 °C; permeable and efflux-deficient strain
M. tuberculosis RNAP = molecular target: T1, M. tuberculosis RNAP (Mycobacterium tuberculosis, UniProt P9WGY7+P9WGY9); test: biochemical; conditions: fluorescent run-off transcription assay, triplicate, mean ± s.d.; read-out: IC50 Mtb RNAP, fluorescence read-out
T1 construct: made in house; host or cells: E. coli BL21(DE3) is stated for σA only

[4] = concentration for 90 % inhibition of fluorescence as proxy for growth inhibition, 10 days, 37 °C
[5] = 14 days, 37 °C, turbidity by eye

## CCc1c(Cl)c(O)c(Cl)c(O)c1C(=O)O[C@H]1[C@H](O)[C@H](OC)[C@H](OC/C2=C\C=C\C[C@H](O)/C(C)=C/[C@H](CC)[C@@H](O[C@@H]3OC(C)(C)[C@@H](OC(=O)C(C)C)[C@H](O)[C@@H]3O)/C(C)=C/C(C)=C/C[C@@H]([C@@H](C)O)OC2=O)O[C@@H]1C [Fdx, fidaxomicin, reference compound]
[1]
  IC90: 0.5 µg/mL (≈ 0.473 µM)
C. crescentus pfhuA
  Inhibition zone C. crescentus pfuhAh: 126 ± 20 mm2
C. difficile 630
  MIC: < 0.0078 µg/mL
[2]
  MIC: 0.5 µg/mL (≈ 0.473 µM)
Mutant RNAP^R89A
  increase of IC50 against the mutant RNAP^R89A: > 400 fold
[3]
  Inhibition zone C. crescentus pfuhAh_∆acrABnodT: 311 ± 4 mm2 and 311±4.0 mm2

## CO[C@H]1/C=C/O[C@@]2(C)Oc3c(C)c(O)c4c(O)c(c(/C=N/N5CCN(C)CC5)c(O)c4c3C2=O)NC(=O)/C(C)=C\C=C\[C@H](C)[C@H](O)[C@@H](C)[C@@H](O)[C@@H](C)[C@H](OC(C)=O)[C@@H]1C [Rif, Rifampicin, reference compound]
[2]
  MIC: < 0.12 µg/mL

## CC[C@H]1/C=C(\C)[C@@H](O)C/C=C/C=C(\CN(C)Cc2nnc(-c3ccccc3)o2)C(=O)O[C@H]([C@@H](C)O)C/C=C(C)/C=C(\C)[C@@H]1O[C@@H]1OC(C)(C)[C@@H](OC(=O)C(C)C)[C@H](O)[C@@H]1O [compound 7]
[1]
  IC90: 8 µg/mL (≈ 9.57 µM)
C. difficile 630
  MIC: 16 µg/mL (≈ 19.1 µM)
[2]
  MIC: 8 µg/mL (≈ 9.57 µM)

## CC[C@H]1/C=C(\C)[C@@H](O)C/C=C/C=C(\CNc2nccs2)C(=O)O[C@H]([C@@H](C)O)C/C=C(C)/C=C(\C)[C@@H]1O[C@@H]1OC(C)(C)[C@@H](OC(=O)C(C)C)[C@H](O)[C@@H]1O [compound 8]
[1]
  IC90: 16 µg/mL (≈ 21.4 µM)
C. crescentus pfhuA
  Inhibition zone C. crescentus pfuhAh: 81 ± 12 mm2
C. difficile 630
  MIC: 4 to 8 µg/mL (≈ 5.36 to 10.7 µM)
[3]
  Inhibition zone C. crescentus pfuhAh_∆acrABnodT: 263 ± 32 mm2

## CC[C@H]1/C=C(\C)[C@@H](O)C/C=C/C=C(\CNc2nc3ccccc3s2)C(=O)O[C@H]([C@@H](C)O)C/C=C(C)/C=C(\C)[C@@H]1O[C@@H]1OC(C)(C)[C@@H](OC(=O)C(C)C)[C@H](O)[C@@H]1O [compound 9]
[1]
  IC90: 8 µg/mL (≈ 10 µM)
C. difficile 630
  MIC: 2 µg/mL (≈ 2.51 µM)
[2]
  MIC: 4 to 8 µg/mL (≈ 5.02 to 10 µM)

## CC[C@H]1/C=C(\C)[C@@H](O)C/C=C/C=C(\CNc2nc(COc3ccccc3)cs2)C(=O)O[C@H]([C@@H](C)O)C/C=C(C)/C=C(\C)[C@@H]1O[C@@H]1OC(C)(C)[C@@H](OC(=O)C(C)C)[C@H](O)[C@@H]1O [compound 10]
M. tuberculosis RNAP
  IC50: 170 ± 60 nM
[1]
  IC90: 8 µg/mL (≈ 9.38 µM)
C. difficile 630
  MIC C. difficile: 1 µg/mL (≈ 1.17 µM)
  MIC: 1 µg/mL (≈ 1.17 µM)
[2]
  MIC: 4 to 8 µg/mL (≈ 4.69 to 9.38 µM)

## CC[C@H]1/C=C(\C)[C@@H](O)C/C=C/C=C(\CNc2nc(-c3ccccc3)cs2)C(=O)O[C@H]([C@@H](C)O)C/C=C(C)/C=C(\C)[C@@H]1O[C@@H]1OC(C)(C)[C@@H](OC(=O)C(C)C)[C@H](O)[C@@H]1O [compound 13]
M. tuberculosis RNAP
  IC50: 130 ± 50 nM
[1]
  IC90: 8 µg/mL (≈ 9.72 µM)
C. difficile 630
  MIC: 4 µg/mL (≈ 4.86 µM)
[2]
  MIC: 8 to 16 µg/mL (≈ 9.72 to 19.4 µM)

## CC[C@H]1/C=C(\C)[C@@H](O)C/C=C/C=C(\CNCc2nnc(-c3ccccc3)o2)C(=O)O[C@H]([C@@H](C)O)C/C=C(C)/C=C(\C)[C@@H]1O[C@@H]1OC(C)(C)[C@@H](OC(=O)C(C)C)[C@H](O)[C@@H]1O [compound 16]
M. tuberculosis RNAP
  IC50: 420 ± 230 nM
[1]
  IC90: 4 µg/mL (≈ 4.87 µM)
C. crescentus pfhuA
  Inhibition zone C. crescentus pfuhAh: 127 ± 13 mm2
C. difficile 630
  MIC: 4 to 8 µg/mL (≈ 4.87 to 9.73 µM)
[2]
  MIC: 4 µg/mL (≈ 4.87 µM)
[3]
  Inhibition zone C. crescentus pfuhAh_∆acrABnodT: 322 ± 26 mm2

## CC[C@H]1/C=C(\C)[C@@H](O)C/C=C/C=C(\CNCc2nnc(-c3ccc(OC)c(OC)c3Cl)o2)C(=O)O[C@H]([C@@H](C)O)C/C=C(C)/C=C(\C)[C@@H]1O[C@@H]1OC(C)(C)[C@@H](OC(=O)C(C)C)[C@H](O)[C@@H]1O [compound 18]
[1]
  IC90: 8 µg/mL (≈ 8.73 µM)
C. crescentus pfhuA
  Inhibition zone C. crescentus pfuhAh: 54 ± 8 mm2
C. difficile 630
  MIC: 8 µg/mL (≈ 8.73 µM)
[2]
  MIC: 4 µg/mL (≈ 4.36 µM)
[3]
  Inhibition zone C. crescentus pfuhAh_∆acrABnodT: 200 ± 19 mm2

## CC[C@H]1/C=C(\C)[C@@H](O)C/C=C/C=C(\CNCc2nnc(-c3ccccc3)s2)C(=O)O[C@H]([C@@H](C)O)C/C=C(C)/C=C(\C)[C@@H]1O[C@@H]1OC(C)(C)[C@@H](OC(=O)C(C)C)[C@H](O)[C@@H]1O [compound 20]
[1]
  IC90: 2 µg/mL (≈ 2.39 µM)
C. crescentus pfhuA
  Inhibition zone C. crescentus pfuhAh: 108 ± 11 mm2
[2]
  MIC: 2 µg/mL (≈ 2.39 µM)
[3]
  Inhibition zone C. crescentus pfuhAh_∆acrABnodT: 241 ± 40 mm2

## CC[C@H]1/C=C(\C)[C@@H](O)C/C=C/C=C(\CNCc2nnc(-c3cc(Cl)cc(Cl)c3)o2)C(=O)O[C@H]([C@@H](C)O)C/C=C(C)/C=C(\C)[C@@H]1O[C@@H]1OC(C)(C)[C@@H](OC(=O)C(C)C)[C@H](O)[C@@H]1O [compound 21]
[1]
  IC90: 8 µg/mL (≈ 8.98 µM)
C. difficile 630
  MIC: 4 µg/mL (≈ 4.49 µM)
[2]
  MIC: 2 µg/mL (≈ 2.24 µM)
[3]
  Inhibition zone C. crescentus pfuhAh_∆acrABnodT: 73 ± 11 mm2

## CC[C@H]1/C=C(\C)[C@@H](O)C/C=C/C=C(\CNCc2nnc(-c3cccc(O)c3O)o2)C(=O)O[C@H]([C@@H](C)O)C/C=C(C)/C=C(\C)[C@@H]1O[C@@H]1OC(C)(C)[C@@H](OC(=O)C(C)C)[C@H](O)[C@@H]1O [compound 22]
[1]
  IC90: 4 µg/mL (≈ 4.68 µM)
C. difficile 630
  MIC: 8 µg/mL (≈ 9.37 µM)
[2]
  MIC: 2 µg/mL (≈ 2.34 µM)

## CC[C@H]1/C=C(\C)[C@@H](O)C/C=C/C=C(\CNCc2nnc(-c3ccc(C(F)(F)F)cc3)o2)C(=O)O[C@H]([C@@H](C)O)C/C=C(C)/C=C(\C)[C@@H]1O[C@@H]1OC(C)(C)[C@@H](OC(=O)C(C)C)[C@H](O)[C@@H]1O [compound 23]
[1]; [4]
  IC90: 8 µg/mL (≈ 8.99 µM)
C. difficile 630
  MIC: 4 µg/mL (≈ 4.49 µM)
[2]; [5]
  MIC: 2 µg/mL (≈ 2.25 µM)

## CC[C@H]1/C=C(\C)[C@@H](O)C/C=C/C=C(\CNc2ccc(C#N)cc2)C(=O)O[C@H]([C@@H](C)O)C/C=C(C)/C=C(\C)[C@@H]1O[C@@H]1OC(C)(C)[C@@H](OC(=O)C(C)C)[C@H](O)[C@@H]1O [compound 24]
[1]
  activity against M. tuberculosis (in words): showed activity
[1]; [4]
  IC90: 16 µg/mL (≈ 20.9 µM)
C. difficile 630
  MIC: 4 µg/mL (≈ 5.23 µM)
[2]; [5]
  MIC: 16 µg/mL (≈ 20.9 µM)

## CC[C@H]1/C=C(\C)[C@@H](O)C/C=C/C=C(\CNc2ccc(C#N)cn2)C(=O)O[C@H]([C@@H](C)O)C/C=C(C)/C=C(\C)[C@@H]1O[C@@H]1OC(C)(C)[C@@H](OC(=O)C(C)C)[C@H](O)[C@@H]1O [compound 25]
[1]; [4]
  IC90: 16 µg/mL (≈ 20.9 µM)
C. difficile 630
  MIC C. difficile: 1 µg/mL (≈ 1.31 µM)
[2]; [5]
  MIC: 8 µg/mL (≈ 10.4 µM)

## CC[C@H]1/C=C(\C)[C@@H](O)C/C=C/C=C(\CNc2cccc(CN)c2)C(=O)O[C@H]([C@@H](C)O)C/C=C(C)/C=C(\C)[C@@H]1O[C@@H]1OC(C)(C)[C@@H](OC(=O)C(C)C)[C@H](O)[C@@H]1O [compound 27]
M. tuberculosis RNAP
  IC50: > 100000 nM
[1]; [4]
  IC90: 32 µg/mL (≈ 41.6 µM)
C. difficile 630
  MIC: > 32 µg/mL
[3]
  Inhibition zone C. crescentus pfuhAh_∆acrABnodT: 119 ± 15 mm2

## CC[C@H]1/C=C(\C)[C@@H](O)C/C=C/C=C(\CNc2cccc(CNC(=O)c3ccc(OC)c(OC)c3Cl)c2)C(=O)O[C@H]([C@@H](C)O)C/C=C(C)/C=C(\C)[C@@H]1O[C@@H]1OC(C)(C)[C@@H](OC(=O)C(C)C)[C@H](O)[C@@H]1O [compound 30]
M. tuberculosis RNAP
  IC50: 620 ± 290 nM
[1]; [4]
  IC90: 16 µg/mL (≈ 16.5 µM)
C. difficile 630
  MIC: > 32 µg/mL

## CC[C@H]1/C=C(\C)[C@@H](O)C/C=C/C=C(\CNc2nc(-c3cccc(OS(=O)(=O)N4CCCC4)c3)cs2)C(=O)O[C@H]([C@@H](C)O)C/C=C(C)/C=C(\C)[C@@H]1O[C@@H]1OC(C)(C)[C@@H](OC(=O)C(C)C)[C@H](O)[C@@H]1O [compound 36]
[1]; [4]
  IC90: 8 µg/mL (≈ 8.23 µM)
C. difficile 630
  MIC: > 32 µg/mL

## CC[C@H]1/C=C(\C)[C@@H](O)C/C=C/C=C(\CNc2nc(-c3cccc(OS(=O)(=O)NCCOC)c3)cs2)C(=O)O[C@H]([C@@H](C)O)C/C=C(C)/C=C(\C)[C@@H]1O[C@@H]1OC(C)(C)[C@@H](OC(=O)C(C)C)[C@H](O)[C@@H]1O [compound 37]
[1]; [4]
  IC90: 8 µg/mL (≈ 8.19 µM)
C. difficile 630
  MIC: 2 µg/mL (≈ 2.05 µM)

## CC[C@H]1/C=C(\C)[C@@H](O)C/C=C/C=C(\CNc2nc(-c3cccc(OS(=O)(=O)Oc4ccccc4)c3)cs2)C(=O)O[C@H]([C@@H](C)O)C/C=C(C)/C=C(\C)[C@@H]1O[C@@H]1OC(C)(C)[C@@H](OC(=O)C(C)C)[C@H](O)[C@@H]1O [compound 38]
[1]; [4]
  IC90: > 64 µg/mL
C. difficile 630
  MIC: > 32 µg/mL
